Data reported in patent US20250368618A1, “BENZOHETEROCYCLIC SUBSTITUTED TETRAHYDROISOQUINOLINE COMPOUND SALT FORM AND PREPARATION METHOD THEREFOR” (SHANGHAI JEYOU PHARMACEUTICAL CO., LTD., priority 2022, published 2025).

Experiments:
Sprague-Dawley rats [1] = assay: Inhibition of phosphate and sodium absorption in intestinal tract of rats after single administration (urinary phosphorus, urinary sodium, fecal form); format: in vivo, rat; conditions: normal rats
Description: The compound represented by formula (I) was evaluated by measuring the concentrations of urinary phosphorus and urinary sodium, as well as fecal form.
(§1) Six-week-old Sprague-Dawley rats were purchased from Beijing Vital River Laboratory Animal Technology Co., Ltd. Two rats in each cage were placed in the SPF-grade animal room, and the rats were acclimatized for about one week. Throughout the study, the animals were given ad libitum access to feed and water, and the light cycle was 12 h of light and 12 h of darkness. Animal groups: vehicle group, n=5; tenapanor 0.3 mg/kg group, n=5; compound represented by formula (I) 0.03 mg/kg group, n=5; compound represented by formula (I) 0.1 mg/kg group, n=5; compound represented by formula (I) 0.3 mg/kg group, n=5; and compound represented by formula (I) 1.0 mg/kg group, n=5.
On the day of the experiment, the test compound or vehicle (0.5% Tween 80+99.5% distilled water) was administered intragastrically to the animals after 8 h of fasting. Then, the animals were transferred into metabolism cages for single-cage feeding, and the feed was restored. Sixteen hours after administration, urine samples were collected, food consumption was recorded, and fecal form in the collection funnel was evaluated by two independent observations. Fecal form scoring criteria: 1. normal pellets; 2. slightly soft feces (pellets adhered to the side wall of the collector due to moisture); 3. soft feces (loss of normal shape of the pellets); 4. loose and amorphous (complete loss of shape, accompanied by a blot pattern); and 5. diarrhea (watery feces). Fecal form score (FFS) in rats was determined by averaging two independent observation scores for all rats in the same group (n=5); and the mean value for the vehicle group was 1.
The urine was centrifuged at 4° C. at 3220 g for 5 min, and the urinary phosphorus concentration (phosphomolybdic acid ultraviolet endpoint colorimetric method) and urinary sodium concentration (ion selective electrode method) were measured.
(§2) The results were expressed as mean±standard error (Means±SEM). The urinary phosphorus excretion amount (or urinary sodium excretion amount) in the rats was normalized and corrected against the respective dietary phosphorus (or sodium) intake. The formula was as follows: normalized correction value of urinary phosphorus excretion amount (expressed as nP)=urinary phosphorus excretion amount+dietary phosphorus intake; normalized correction value of urinary sodium excretion amount (expressed as nNa)=urinary sodium excretion amount+dietary sodium intake; one-way analysis of variance was adopted; and fecal form score was verified by the non-parametric test. *, p<0.05; **, p<0.01; ***, p<0.001; ****, p<0.0001.

Sprague-Dawley rats [2] = assay: Effect of multiple administrations on serum phosphorus concentration in rats (serum phosphorus, 24-h urinary phosphorus and sodium, fecal form); format: in vivo, rat; conditions: for 24-h nP, course: after 15 days; for serum phosphorus concentration: intragastric twice a day
Description: as §1, with “The compound represented by formula (I) was evaluated by measuring the serum phosphorus concentration, concentrations of urinary phosphorus and urinary sodium, and fecal form in rats. Six-week-old” for “Six-week-old”, “Tenapanor 0.05 mg/kg,” for “tenapanor 0.3 mg/kg group,”, “0.01 mg/kg,” for “0.03 mg/kg group,”, “0.05 mg/kg,” for “0.1 mg/kg group,”, “0.5 mg/kg,” for “0.3 mg/kg group,”, “mg/kg,” for “mg/kg group,”
After the start of the experiment, the feeding rhythm of the rats was adjusted to diurnal feeding in a manner of overnight fasting for 16 h and restoring feed for 8 h during the day. After the start of administration, the test compound or vehicle (0.5% Tween 80+99.5% distilled water) was administered intragastrically twice a day during the feeding period, with an interval of 4 h, for 14 consecutive days. The body weight of animals and food consumption were measured daily. The serum phosphorus concentration (including baseline values before the administration), 24-hour urinary phosphorus excretion amount, and 24-hour urinary sodium excretion amount were measured 1-2 times a week, and fecal form in the collection funnel was scored (fecal form was assessed by two independent observations). Fecal form scoring criteria: 1. normal pellets; 2. slightly soft feces (pellets adhered to the side wall of the collector due to moisture); 3. soft feces (loss of normal shape of the pellets); 4. loose and amorphous (complete loss of shape, accompanied by a blot pattern); and 5. diarrhea (watery feces). Fecal form score (FFS) in rats was determined by averaging two independent observation scores for all rats in the same group (n=5); and the mean value for the vehicle group was 1.
After being left to stand at room temperature for 2 h, the blood was centrifuged at 4° C. at 4500 g for 10 min; the urine was centrifuged at 4° C. at 3220 g for 5 min; and the serum phosphorus concentration and urinary phosphorus concentration (phosphomolybdic acid ultraviolet endpoint colorimetric method), as well as urinary sodium concentration (indirect ion electrode method) were measured.
as §2, with “error (Means±SEM), n=5 animals/group.” for “error (Means±SEM).”, “intake; two-way” for “intake; one-way”, “p<0.05; **” for “p<0.05; **,”, “p<0.01; ***” for “p<0.01; ***,”

fecal form score (Sprague-Dawley rats [2]; after 1 day of treatment, 0.05, 0.5 and 1.0 mg/kg, vs vehicle control): increased significantly | loose feces, severity (Sprague-Dawley rats [2]; high-dose groups 0.5 mg/kg and 1.0 mg/kg): more severe loose feces | frequency of loose feces observed (Sprague-Dawley rats [2]; high-dose groups 0.5 mg/kg and 1.0 mg/kg, as the administration continued): decreased | loose feces, occurrence (Sprague-Dawley rats [2]; low dose 0.01 mg/kg): No rats had loose feces
SMILES: CN1Cc2c(Cl)cc(Cl)cc2[C@H](c2ccc3cn(CCOCCOCCNC(=O)NCCCCNC(=O)NCCOCCOCCn4cc5ccc([C@@H]6CN(C)Cc7c(Cl)cc(Cl)cc76)cc5n4)nc3c2)C1 [compound represented by formula (I)]
urinary phosphorus excretion amount (nP) (Sprague-Dawley rats [1]; single intragastric administration, 0.03, 0.1, 0.3, 1.0 mg/kg, urine 16 h after administration, dose dependence): dose-effect relationship | water content in the feces (fecal form score) (Sprague-Dawley rats [1]; single intragastric administration, 0.03-1.0 mg/kg, 16 h): tendency to increase with the increase in the dose | urinary phosphorus excretion amount (nP) (Sprague-Dawley rats [1]; single intragastric administration, doses of 0.3 mg/kg and 1.0 mg/kg, urine 16 h after administration): significantly reduce | urinary phosphorus excretion amount (nP), comparison with Tenapanor (Sprague-Dawley rats [1]; single intragastric administration, same dose 0.3 mg/kg of both): better than Tenapanor | urinary sodium excretion amount (nNa) (Sprague-Dawley rats [1]; single intragastric administration, urine 16 h after administration): significantly reduce | 24-h nP (Sprague-Dawley rats [2]; after 1 day of treatment, 1.0 mg/kg, vs vehicle): significantly reduced | 24-h nP (urinary phosphorus excretion amount normalized to dietary phosphorus intake) (Sprague-Dawley rats [2]; after 1 day of treatment, 0.01, 0.05, 0.5 and 1.0 mg/kg, vs vehicle): decreasing trend | 24-h nNa (urinary sodium excretion amount normalized to dietary sodium intake) (Sprague-Dawley rats [2]; after 1 day of treatment, 0.01, 0.05, 0.5 and 1.0 mg/kg, vs vehicle control): significantly reduced | 24-h nP, dose dependence (Sprague-Dawley rats [2]; after 1 day of treatment, 0.01-1.0 mg/kg): The higher the dose, the lower the nP | 24-h nNa, course (Sprague-Dawley rats [2]; after 10 days of treatment, 0.01 mg/kg and 0.05 mg/kg): rising trend | 24-h nP (Sprague-Dawley rats [2]; after 10 days of treatment, 0.01, 0.05, 0.5 and 1.0 mg/kg, vs vehicle): significantly reduced | 24-h nP, course (Sprague-Dawley rats [2]): tended to be stable | 24-h nP, course (Sprague-Dawley rats [2]; low-dose group 0.01 mg/kg): rising trend | serum phosphorus concentration (Sprague-Dawley rats [2]; after 4 days of treatment, 0.5 mg/kg or 1.0 mg/kg, vs vehicle control): significantly reduced | serum phosphorus concentration (Sprague-Dawley rats [2]; after 10 days of treatment, 0.01, 0.05, 0.5 and 1.0 mg/kg, vs vehicle control): significantly reduced | serum phosphorus concentration, course (Sprague-Dawley rats [2]; twice a day, after 10 days, groups other than the highest dose 1.0 mg/kg): tended to be stable
